≈ marks a conversion by molar mass, not a printed value. Where two headings read alike, the source gives them in different places.
Tested on: DENV-2 RL
Assay: microbe, parasite or virus in culture
Format: cell-based
Conditions: Dengue virus, DENV2, Vero

SMILES: COc1cc(N[C@H](C(=O)c2c[nH]c3ccc(OC(F)(F)F)cc23)c2ccc(Cl)cc2OC)cc(S(C)(=O)=O)c1 [JNJ-1802]
- EC50 (read-out: EC50 values [Well 2], A sample, passage 18): 3.13 ng/mL (≈ 5.37 nM)
- EC50 (read-out: EC50 values [Well 2], A sample, passage 20): 12.5 ng/mL (≈ 21.4 nM)
- EC50 (read-out: EC50 values [Well 2], A sample, passage 21): 12.5 ng/mL (≈ 21.4 nM)
- EC50 (read-out: EC50 values [Well 2], A sample, passage 22): 12.5 ng/mL (≈ 21.4 nM)
- EC50 (read-out: EC50 values [Well 2], A sample, passage 23): 12.5 ng/mL (≈ 21.4 nM)
- EC50 (read-out: EC50 values [Well 2], A sample, passage 24): 25 ng/mL (≈ 42.9 nM)
- EC50 (read-out: EC50 values [Well 2], A sample, passage 25): 25 ng/mL (≈ 42.9 nM)
- EC50 (read-out: EC50 values [Well 2], A sample, passage 26): 50 ng/mL (≈ 85.8 nM)
- EC50 (read-out: EC50 values [Well 2], A sample, passage 27): 100 ng/mL (≈ 172 nM)
- EC50 (read-out: EC50 values [Well 2], A sample, passage 28): 100 ng/mL (≈ 172 nM)
- EC50 (read-out: EC50 values [Well 2], A sample, passage 29): 100 ng/mL (≈ 172 nM)
- EC50 (read-out: EC50 values [Well 2], A sample, passage 30): 100 ng/mL (≈ 172 nM)
- EC50 (read-out: EC50 values [Well 2], A sample, passage 31): 50 ng/mL (≈ 85.8 nM)
- EC50 (read-out: EC50 values [Well 2], A sample, passage 32): 50 ng/mL (≈ 85.8 nM)
- EC50 (read-out: EC50 values [Well 2], A sample, passage 33): 100 ng/mL (≈ 172 nM)
- EC50 (read-out: EC50 values [Well 2], A sample, passage 34): 100 ng/mL (≈ 172 nM)
- EC50 (read-out: EC50 values [Well 2], A sample, passage 35): 100 ng/mL (≈ 172 nM)
- EC50 (read-out: EC50 values [Well 2], A sample, passage 36): 100 ng/mL (≈ 172 nM)
- EC50 (read-out: EC50 values [Well 2], A sample, passage 37): 200 ng/mL (≈ 343 nM)
- EC50 (read-out: EC50 values [Well 2], A sample, passage 38): 200 ng/mL (≈ 343 nM)
- EC50 (read-out: EC50 values [Well 2], A sample, passage 39): 500 ng/mL (≈ 858 nM)
- EC50 (read-out: EC50 values [Well 2], A sample, passage 40): 500 ng/mL (≈ 858 nM)
- EC50 (read-out: EC50 values [Well 2], A sample, passage 41): 500 ng/mL (≈ 858 nM)
- EC50 (read-out: EC50 values [Well 2], A sample, passage 42 (END)): 500 ng/mL (≈ 858 nM)
- EC50 (read-out: EC50 values [Well 2], B sample, passage 1): 0.024 ng/mL (≈ 0.0412 nM)
- EC50 (read-out: EC50 values [Well 2], B sample, passage 2): 0.024 ng/mL (≈ 0.0412 nM)
- EC50 (read-out: EC50 values [Well 2], B sample, passage 3): 0.024 ng/mL (≈ 0.0412 nM)
- EC50 (read-out: EC50 values [Well 2], B sample, passage 4): 0.024 ng/mL (≈ 0.0412 nM)
- EC50 (read-out: EC50 values [Well 2], B sample, passage 5): 0.024 ng/mL (≈ 0.0412 nM)
- EC50 (read-out: EC50 values [Well 2], B sample, passage 6): 0.049 ng/mL (≈ 0.0841 nM)
- EC50 (read-out: EC50 values [Well 2], B sample, passage 7): 0.049 ng/mL (≈ 0.0841 nM)
- EC50 (read-out: EC50 values [Well 2], B sample, passage 8): 0.049 ng/mL (≈ 0.0841 nM)
- EC50 (read-out: EC50 values [Well 2], B sample, passage 9): 0.049 ng/mL (≈ 0.0841 nM)
- EC50 (read-out: EC50 values [Well 2], B sample, passage 10): 0.049 ng/mL (≈ 0.0841 nM)
- EC50 (read-out: EC50 values [Well 2], B sample, passage 13): 0.195 ng/mL (≈ 0.334 nM)
- EC50 (read-out: EC50 values [Well 2], B sample, passage 14): 0.049 ng/mL (≈ 0.0841 nM)
- EC50 (read-out: EC50 values [Well 2], B sample, passage 15): 0.049 ng/mL (≈ 0.0841 nM)
- EC50 (read-out: EC50 values [Well 2], B sample, passage 19): 0.195 ng/mL (≈ 0.334 nM)
- EC50 (read-out: EC50 values [Well 2], B sample, passage 20): 0.195 ng/mL (≈ 0.334 nM)
- EC50 (read-out: EC50 values [Well 2], B sample, passage 21): 0.195 ng/mL (≈ 0.334 nM)
- EC50 (read-out: EC50 values [Well 2], B sample, passage 22): 0.195 ng/mL (≈ 0.334 nM)
- EC50 (read-out: EC50 values [Well 2], B sample, passage 23): 0.391 ng/mL (≈ 0.671 nM)
- EC50 (read-out: EC50 values [Well 2], B sample, passage 25): 1.56 ng/mL (≈ 2.68 nM)
- EC50 (read-out: EC50 values [Well 2], B sample, passage 26): 3.13 ng/mL (≈ 5.37 nM)
- EC50 (read-out: EC50 values [Well 2], B sample, passage 27): 3.13 ng/mL (≈ 5.37 nM)
- EC50 (read-out: EC50 values [Well 2], B sample, passage 28): 3.13 ng/mL (≈ 5.37 nM)
- EC50 (read-out: EC50 values [Well 2], B sample, passage 29): 12.5 ng/mL (≈ 21.4 nM)
- EC50 (read-out: EC50 values [Well 2], B sample, passage 31): 15.6 ng/mL (≈ 26.8 nM)
- EC50 (read-out: EC50 values [Well 2], B sample, passage 32): 15.6 ng/mL (≈ 26.8 nM)
- EC50 (read-out: EC50 values [Well 2], B sample, passage 33): 31.3 ng/mL (≈ 53.7 nM)
- EC50 (read-out: EC50 values [Well 2], B sample, passage 34): 31.3 ng/mL (≈ 53.7 nM)
- EC50 (read-out: EC50 values [Well 2], B sample, passage 35): 31.3 ng/mL (≈ 53.7 nM)
- EC50 (read-out: EC50 values [Well 2], B sample, passage 36): 31.3 ng/mL (≈ 53.7 nM)
- EC50 (read-out: EC50 values [Well 2], B sample, passage 37): 31.3 ng/mL (≈ 53.7 nM)
- EC50 (read-out: EC50 values [Well 2], B sample, passage 38): 31.3 ng/mL (≈ 53.7 nM)
- EC50 (read-out: EC50 values [Well 2], B sample, passage 39): 62.5 ng/mL (≈ 107 nM)
- EC50 (read-out: EC50 values [Well 2], B sample, passage 40): 125 ng/mL (≈ 214 nM)
- EC50 (read-out: EC50 values [Well 2], B sample, passage 41): 250 ng/mL (≈ 429 nM)
- EC50 (read-out: EC50 values [Well 2], B sample, passage 42): 250 ng/mL (≈ 429 nM)
- EC50 (read-out: EC50 values [Well 2], B sample, passage 43): 250 ng/mL (≈ 429 nM)
- EC50 (read-out: EC50 values [Well 2], B sample, passage 44): 250 ng/mL (≈ 429 nM)
- EC50 (read-out: EC50 values [Well 2], B sample, passage 45): 250 ng/mL (≈ 429 nM)
- EC50 (read-out: EC50 values [Well 2], B sample, passage 46): 250 ng/mL (≈ 429 nM)
- EC50 (read-out: EC50 values [Well 2], B sample, passage 47): 250 ng/mL (≈ 429 nM)
- EC50 (read-out: EC50 values [Well 2], B sample, passage 48): 500 ng/mL (≈ 858 nM)
- EC50 (read-out: EC50 values [Well 2], B sample, passage 49): 500 ng/mL (≈ 858 nM)
- EC50 (read-out: EC50 values [Well 2], B sample, passage 50 (END)): 500 ng/mL (≈ 858 nM)

Source: publication PMC10033419, “Blocking NS3–NS4B interaction inhibits dengue virus in non-human primates” (Nature, 2023)
